According to ChEMBL document CHEMBL1201862, “PubChem BioAssay data set” (2004):
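Each compound was tested at five concentrations against cells in 96-well plates for 48 hours. GI50 marks 50% less growth.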 Activity calls are given as the source filed them. Cut-off read from the data, not from the text of the source: active = GI50 up to about 1.1 µM and inactive = higher.

How the values were obtained:
Assay in all cases: inhibition of tumour cell growth, NCI panel, 48 h
NCI-H522 = test system: NCI-H522
A549 = test system: A549
MOLT-4 = test system: MOLT-4
NCI-H23 = test system: NCI-H23
MDA-MB-231 = test system: MDA-MB-231
NCI-H226 = test system: NCI-H226
786-0 = test system: 786-0
UACC-257 = test system: UACC-257
SF-539 = test system: SF-539
NCI/ADR-RES = test system: NCI/ADR-RES
UO-31 = test system: UO-31
COLO 205 = test system: COLO 205
HOP-62 = test system: HOP-62
SK-MEL-5 = test system: SK-MEL-5
SK-MEL-28 = test system: SK-MEL-28
SN12C = test system: SN12C
RXF 393 = test system: RXF 393
HOP-92 = test system: HOP-92
U-251 = test system: U-251
SNB-75 = test system: SNB-75

Measured: GI50

C1CNCCNCCN1
inactive: NCI-H522 > 100 µM | A549 > 100 µM | MOLT-4 > 100 µM | NCI-H23 > 100 µM | MDA-MB-231 > 100 µM | NCI-H226 > 100 µM | 786-0 > 100 µM | UACC-257 > 100 µM | SF-539 26.2 µM | NCI/ADR-RES > 100 µM | UO-31 > 100 µM | COLO 205 > 100 µM | HOP-62 > 100 µM | SK-MEL-5 > 100 µM | SK-MEL-28 > 100 µM | SN12C > 100 µM | RXF 393 > 100 µM | HOP-92 > 100 µM | U-251 > 100 µM

CCOC(=O)/C(C[C@H]1OC(C)(C)O[C@@H]1[C@H]1COC(C)(C)O1)=N/O
inactive: NCI-H522 > 100 µM | A549 > 100 µM | MOLT-4 > 100 µM | NCI-H23 > 100 µM | MDA-MB-231 > 100 µM | NCI-H226 > 100 µM | 786-0 > 100 µM | UACC-257 > 100 µM | SF-539 > 100 µM | NCI/ADR-RES > 100 µM | UO-31 > 100 µM | COLO 205 > 100 µM | HOP-62 > 100 µM | SK-MEL-5 > 100 µM | SK-MEL-28 > 100 µM | SN12C > 100 µM | RXF 393 > 100 µM | HOP-92 > 100 µM | U-251 > 100 µM

CC(=O)O[C@@H]1[C@H](C(C)C)[C@@H](OC(C)=O)C/C(C)=C/CC[C@]2(C)O[C@@H]12
inactive: NCI-H522 > 100 µM | A549 > 100 µM | SNB-75 > 100 µM | MOLT-4 > 100 µM | NCI-H23 > 100 µM | MDA-MB-231 > 100 µM | NCI-H226 > 100 µM | 786-0 > 100 µM | UACC-257 > 100 µM | NCI/ADR-RES > 100 µM | UO-31 > 100 µM | COLO 205 > 100 µM | HOP-62 > 100 µM | SK-MEL-5 > 100 µM | SK-MEL-28 > 100 µM | SN12C > 100 µM | RXF 393 > 100 µM | HOP-92 > 100 µM | U-251 > 100 µM

CN(CCCNC(=O)c1nn(-c2ccc(Cl)cc2Cl)c2c1Cc1ccccc1-2)CCCNC(=O)c1nn(-c2ccc(Cl)cc2Cl)c2c1Cc1ccccc1-2
inactive: NCI-H522 1.43 µM | A549 1.77 µM | SNB-75 1.55 µM | MOLT-4 1.32 µM | NCI-H23 2 µM | MDA-MB-231 1.87 µM | 786-0 1.67 µM | UACC-257 1.81 µM | SF-539 1.19 µM | NCI/ADR-RES 1.87 µM | UO-31 1.82 µM | COLO 205 1.83 µM | HOP-62 1.72 µM | SK-MEL-5 1.68 µM | SK-MEL-28 1.69 µM | SN12C 1.67 µM | RXF 393 1.77 µM | HOP-92 1.61 µM | U-251 1.79 µM

C[C@H](NC(=O)C(C)(Cc1ccc(O)cn1)NC(=O)c1ccccc1)c1ccccc1 (stereo partly drawn)
inactive: NCI-H522 > 100 µM | A549 > 100 µM | MOLT-4 > 100 µM | NCI-H23 > 100 µM | MDA-MB-231 > 100 µM | NCI-H226 > 100 µM | 786-0 > 100 µM | UACC-257 > 100 µM | SF-539 > 100 µM | NCI/ADR-RES > 100 µM | UO-31 > 100 µM | COLO 205 > 100 µM | HOP-62 > 100 µM | SK-MEL-5 > 100 µM | SK-MEL-28 > 100 µM | SN12C > 100 µM | RXF 393 > 100 µM | HOP-92 > 100 µM | U-251 > 100 µM

O=C(CCC(C(=O)OCc1ccccc1)C(=O)OCc1ccccc1)Nc1ccc(OCc2ccccc2)cc1
inactive: NCI-H522 > 100 µM | A549 35.9 µM | SNB-75 > 100 µM | MOLT-4 55.6 µM | NCI-H23 40.3 µM | MDA-MB-231 22.6 µM | NCI-H226 > 100 µM | 786-0 16.2 µM | UACC-257 > 100 µM | SF-539 > 100 µM | NCI/ADR-RES 60.4 µM | UO-31 > 100 µM | COLO 205 41 µM | HOP-62 > 100 µM | SK-MEL-28 > 100 µM | SN12C > 100 µM | RXF 393 49.8 µM | HOP-92 > 100 µM | U-251 38.3 µM

C[N+](C)(N)Cc1nc(-c2ccc(Cl)cc2)no1
inactive: NCI-H522 > 100 µM | A549 > 100 µM | SNB-75 > 100 µM | MOLT-4 20.8 µM | NCI-H23 > 100 µM | MDA-MB-231 > 100 µM | NCI-H226 > 100 µM | 786-0 > 100 µM | UACC-257 > 100 µM | SF-539 > 100 µM | NCI/ADR-RES > 100 µM | COLO 205 > 100 µM | HOP-62 88.9 µM | SK-MEL-5 75.3 µM | SK-MEL-28 > 100 µM | SN12C > 100 µM | RXF 393 > 100 µM | HOP-92 > 100 µM | U-251 > 100 µM

COc1ccc(C(=C(Cl)c2ccccc2)c2ccc(OC)cc2)cc1
inactive: NCI-H522 84.3 µM | A549 > 100 µM | MOLT-4 > 100 µM | NCI-H23 > 100 µM | MDA-MB-231 > 100 µM | NCI-H226 > 100 µM | 786-0 > 100 µM | UACC-257 86.5 µM | SF-539 > 100 µM | NCI/ADR-RES > 100 µM | UO-31 > 100 µM | COLO 205 > 100 µM | HOP-62 > 100 µM | SK-MEL-5 79.3 µM | SK-MEL-28 > 100 µM | SN12C > 100 µM | RXF 393 > 100 µM | HOP-92 > 100 µM | U-251 > 100 µM

Cc1ccc([N+](=O)[O-])cc1S(=O)(=O)Nc1ccc(C2=NN(S(=O)(=O)c3cc([N+](=O)[O-])ccc3C)C(c3ccccc3O)C2)cc1 (stereo not drawn)
inactive: NCI-H522 44 µM | A549 82.2 µM | SNB-75 31.1 µM | MOLT-4 26.7 µM | NCI-H23 53.5 µM | MDA-MB-231 44.6 µM | NCI-H226 > 100 µM | 786-0 30.8 µM | UACC-257 > 100 µM | NCI/ADR-RES 99.8 µM | UO-31 > 100 µM | COLO 205 > 100 µM | HOP-62 47.5 µM | SK-MEL-5 > 100 µM | SK-MEL-28 > 100 µM | SN12C > 100 µM | RXF 393 36.8 µM | HOP-92 49.9 µM | U-251 30.6 µM

CC(CC(N)C(=O)O)C(=O)O (stereo not drawn)
inactive: NCI-H522 > 100 µM | A549 > 100 µM | MOLT-4 > 100 µM | NCI-H23 > 100 µM | MDA-MB-231 > 100 µM | NCI-H226 > 100 µM | 786-0 > 100 µM | UACC-257 > 100 µM | NCI/ADR-RES > 100 µM | UO-31 > 100 µM | HOP-62 > 100 µM | SK-MEL-5 > 100 µM | SK-MEL-28 > 100 µM | SN12C > 100 µM | RXF 393 > 100 µM | HOP-92 > 100 µM | U-251 > 100 µM
